Data taken from PMC8566089 (Bioorganic Chemistry, 2021).

How the values were obtained:
[1] = system: SARS-CoV-2 (hCoV-19/Egypt/NRC-03/2020); settings: SARS-CoV-2 / VERO-E6
[2] = biological target: T1, EGFR (Homo sapiens, UniProt P00533); experiment: EGFR Western blot in HCT116; assay type: cell-based; settings: for EGFR HCT116 % Inhibition: Western blot at MTT-IC50; for EGFR HCT116 RQ (relative quantification): Western blot at MTT-IC50, control RQ 4.0382
[3] = biological target: T2, VEGFR-2 (Homo sapiens, UniProt P35968); experiment: VEGFR-2 Western blot in HCT116; assay type: cell-based; settings: for VEGFR2 HCT116 % Inhibition: Western blot at MTT-IC50; for VEGFR2 HCT116 RQ (relative quantification): Western blot at MTT-IC50, control RQ 3.817
T2 sequence (P35968 20-1356): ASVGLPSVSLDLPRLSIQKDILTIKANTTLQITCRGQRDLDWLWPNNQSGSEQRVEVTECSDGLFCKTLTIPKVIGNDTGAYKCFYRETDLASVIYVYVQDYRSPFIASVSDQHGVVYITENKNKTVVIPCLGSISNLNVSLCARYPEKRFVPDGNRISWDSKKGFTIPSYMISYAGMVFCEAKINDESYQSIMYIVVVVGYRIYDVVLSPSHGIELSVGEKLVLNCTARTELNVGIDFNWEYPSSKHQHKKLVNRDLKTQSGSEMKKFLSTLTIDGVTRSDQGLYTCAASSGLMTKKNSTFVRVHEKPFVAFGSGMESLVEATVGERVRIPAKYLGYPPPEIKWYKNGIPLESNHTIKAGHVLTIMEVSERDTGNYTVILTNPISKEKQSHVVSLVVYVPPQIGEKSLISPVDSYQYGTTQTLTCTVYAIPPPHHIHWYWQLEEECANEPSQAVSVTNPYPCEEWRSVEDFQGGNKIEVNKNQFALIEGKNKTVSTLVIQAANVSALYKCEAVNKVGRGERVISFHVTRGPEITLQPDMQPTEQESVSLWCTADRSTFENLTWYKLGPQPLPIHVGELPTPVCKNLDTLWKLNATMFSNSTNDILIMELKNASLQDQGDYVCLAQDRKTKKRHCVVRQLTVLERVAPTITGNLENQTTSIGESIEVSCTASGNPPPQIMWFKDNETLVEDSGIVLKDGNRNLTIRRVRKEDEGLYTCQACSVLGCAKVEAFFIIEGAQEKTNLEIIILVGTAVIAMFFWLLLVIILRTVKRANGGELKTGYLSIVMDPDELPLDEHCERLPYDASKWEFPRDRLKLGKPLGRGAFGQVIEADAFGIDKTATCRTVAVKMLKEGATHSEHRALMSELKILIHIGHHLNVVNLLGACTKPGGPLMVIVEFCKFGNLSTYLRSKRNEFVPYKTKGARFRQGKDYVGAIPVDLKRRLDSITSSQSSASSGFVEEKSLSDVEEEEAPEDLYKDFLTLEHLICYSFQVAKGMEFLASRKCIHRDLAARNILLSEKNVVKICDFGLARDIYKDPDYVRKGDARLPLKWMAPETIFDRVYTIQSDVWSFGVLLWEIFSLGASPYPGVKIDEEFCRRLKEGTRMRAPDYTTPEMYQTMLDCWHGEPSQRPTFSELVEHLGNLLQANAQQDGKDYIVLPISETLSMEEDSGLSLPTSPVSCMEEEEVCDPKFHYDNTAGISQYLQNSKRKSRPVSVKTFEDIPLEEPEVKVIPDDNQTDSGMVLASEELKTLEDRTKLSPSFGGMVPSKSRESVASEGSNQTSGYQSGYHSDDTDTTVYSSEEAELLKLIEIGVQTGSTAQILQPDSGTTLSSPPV

[4] = biological target: T1, EGFR; experiment: EGFR Western blot in MCF7; assay type: cell-based; settings: for EGFR MCF7 % Inhibition: Western blot at MTT-IC50; for EGFR MCF7 RQ (relative quantification): Western blot at MTT-IC50, control RQ 4.226
[5] = biological target: T2, VEGFR-2; experiment: VEGFR-2 Western blot in MCF7; assay type: cell-based; settings: for VEGFR2 MCF7 % Inhibition: Western blot at MTT-IC50; for VEGFR2 MCF7 RQ (relative quantification): Western blot at MTT-IC50, control RQ 3.725
[6] = biological target: T3, COX-1 (Ovis aries, UniProt P05979); experiment: COX-1 inhibitor screening kit; assay type: biochemical
T3 sequence (P05979 25-600): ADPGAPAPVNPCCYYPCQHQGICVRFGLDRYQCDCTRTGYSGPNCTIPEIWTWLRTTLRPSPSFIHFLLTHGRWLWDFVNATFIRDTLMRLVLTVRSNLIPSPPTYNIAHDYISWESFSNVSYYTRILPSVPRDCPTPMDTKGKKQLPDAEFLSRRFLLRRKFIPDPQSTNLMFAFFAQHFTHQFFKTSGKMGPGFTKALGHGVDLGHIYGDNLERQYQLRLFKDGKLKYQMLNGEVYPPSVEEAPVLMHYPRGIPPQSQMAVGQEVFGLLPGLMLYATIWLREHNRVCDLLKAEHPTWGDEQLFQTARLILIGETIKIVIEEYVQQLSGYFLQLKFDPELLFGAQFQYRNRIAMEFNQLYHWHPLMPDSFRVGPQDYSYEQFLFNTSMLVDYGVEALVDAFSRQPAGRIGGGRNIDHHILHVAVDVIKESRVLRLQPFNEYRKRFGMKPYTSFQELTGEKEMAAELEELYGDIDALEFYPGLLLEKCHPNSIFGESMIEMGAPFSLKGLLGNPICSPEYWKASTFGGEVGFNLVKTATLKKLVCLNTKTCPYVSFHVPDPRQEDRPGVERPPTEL

[7] = biological target: T4, COX-2 (Homo sapiens, UniProt P35354); experiment: COX-2 inhibitor screening kit; assay type: biochemical
T4 sequence (P35354 18-604): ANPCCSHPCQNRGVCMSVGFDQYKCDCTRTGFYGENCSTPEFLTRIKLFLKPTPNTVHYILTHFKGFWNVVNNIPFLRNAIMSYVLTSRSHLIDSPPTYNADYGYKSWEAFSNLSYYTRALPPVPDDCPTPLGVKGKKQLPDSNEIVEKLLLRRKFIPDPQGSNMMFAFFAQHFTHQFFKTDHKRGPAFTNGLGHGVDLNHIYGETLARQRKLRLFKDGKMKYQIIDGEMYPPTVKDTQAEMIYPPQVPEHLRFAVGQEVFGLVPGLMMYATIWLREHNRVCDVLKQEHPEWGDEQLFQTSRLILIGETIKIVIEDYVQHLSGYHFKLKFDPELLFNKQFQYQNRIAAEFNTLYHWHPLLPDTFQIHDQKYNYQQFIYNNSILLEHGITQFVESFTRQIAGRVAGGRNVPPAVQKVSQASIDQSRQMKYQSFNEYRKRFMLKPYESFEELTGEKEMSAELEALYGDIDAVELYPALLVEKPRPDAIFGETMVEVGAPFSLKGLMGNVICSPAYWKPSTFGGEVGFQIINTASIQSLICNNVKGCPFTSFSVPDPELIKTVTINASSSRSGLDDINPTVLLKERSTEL

[8] = system: HCT116 (colon) cancer cell line; experiment: MTT antiproliferative assay, HCT116; assay type: cell-based; settings: for IC50: Homo sapiens, HCT-116, 72 h, read-out: IC50 ± SE, HCT116; for SI (selectivity index), HCT116: IC50 of RPE1 relative to that of HCT116
[9] = system: A431 (squamous skin) cancer cell line; experiment: MTT antiproliferative assay, A431; assay type: cell-based; settings: for IC50: Homo sapiens, A-431, 72 h, read-out: IC50 ± SE, A431; for SI (selectivity index), A431: IC50 of RPE1 relative to that of A431
[10] = system: RPE1 (normal human immortalized retinal pigment epithelial cell line); experiment: MTT assay against normal RPE1 cells; assay type: cell-based; settings: RPE-1, read-out: IC50 ± SE, RPE1
[11] = system: MCF7 (breast) cancer cell line; experiment: MTT antiproliferative assay, MCF7; assay type: cell-based; settings: for IC50: Homo sapiens, MCF7, 72 h, read-out: IC50 ± SE, MCF7; for SI (selectivity index), MCF7: IC50 of RPE1 relative to that of MCF7

T1 sequence (P00533 25-1210): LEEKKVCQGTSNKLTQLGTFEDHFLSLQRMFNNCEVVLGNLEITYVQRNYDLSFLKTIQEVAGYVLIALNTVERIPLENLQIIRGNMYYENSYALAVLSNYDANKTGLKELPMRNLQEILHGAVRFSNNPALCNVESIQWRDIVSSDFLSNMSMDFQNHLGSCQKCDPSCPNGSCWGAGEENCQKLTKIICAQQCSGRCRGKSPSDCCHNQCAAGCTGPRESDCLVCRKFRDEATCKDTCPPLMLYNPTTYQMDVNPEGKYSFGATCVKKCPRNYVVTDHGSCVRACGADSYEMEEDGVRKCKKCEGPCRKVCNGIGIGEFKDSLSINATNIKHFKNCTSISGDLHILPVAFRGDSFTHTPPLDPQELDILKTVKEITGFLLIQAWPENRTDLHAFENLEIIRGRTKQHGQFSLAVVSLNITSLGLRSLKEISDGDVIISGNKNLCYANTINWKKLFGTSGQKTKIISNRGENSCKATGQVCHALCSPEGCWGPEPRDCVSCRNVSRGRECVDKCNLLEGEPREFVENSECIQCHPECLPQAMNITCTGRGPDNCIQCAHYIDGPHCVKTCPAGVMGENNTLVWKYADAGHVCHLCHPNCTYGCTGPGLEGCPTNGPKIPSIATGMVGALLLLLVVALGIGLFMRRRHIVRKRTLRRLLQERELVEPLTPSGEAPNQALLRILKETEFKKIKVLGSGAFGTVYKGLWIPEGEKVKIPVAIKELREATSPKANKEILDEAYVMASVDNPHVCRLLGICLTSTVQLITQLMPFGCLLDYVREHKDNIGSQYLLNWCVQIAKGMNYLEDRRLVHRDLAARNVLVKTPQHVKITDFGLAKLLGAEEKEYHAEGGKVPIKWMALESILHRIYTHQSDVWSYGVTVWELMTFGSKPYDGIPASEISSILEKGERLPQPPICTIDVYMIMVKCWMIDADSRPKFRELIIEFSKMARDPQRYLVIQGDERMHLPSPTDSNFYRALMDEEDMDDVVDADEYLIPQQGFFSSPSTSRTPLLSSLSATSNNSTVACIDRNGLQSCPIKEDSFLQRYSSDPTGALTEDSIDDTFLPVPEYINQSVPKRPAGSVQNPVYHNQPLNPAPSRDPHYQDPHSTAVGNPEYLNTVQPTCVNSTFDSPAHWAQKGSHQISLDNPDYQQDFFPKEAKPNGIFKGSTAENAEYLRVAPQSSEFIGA

Row | SMILES | SI = CC50/IC50 [1] | EGFR HCT116 % Inhibition [2] | VEGFR2 HCT116 % Inhibition [3] | EGFR MCF7 % Inhibition [4] | VEGFR2 MCF7 % Inhibition [5] | IC50 [6] | IC50 [7] | SI = IC50(COX-1)/IC50(COX-2) [7] | EGFR HCT116 RQ (relative quantification) [2] | VEGFR2 HCT116 RQ (relative quantification) [3] | IC50 [8] | SI (selectivity index), HCT116 [8] | EGFR MCF7 RQ (relative quantification) [4] | IC50 [9] | SI (selectivity index), A431 [9] | IC50 [10] | VEGFR2 MCF7 RQ (relative quantification) [5] | IC50 [11] | SI (selectivity index), MCF7 [11]
1 | CCN(CC)CCCC(C)Nc1ccnc2cc(Cl)ccc12 (stereo not shown) [Chloroquine, reference compound] | 15.1 | – | – | – | – | – | – | – | – | – | – | – | – | – | – | – | – | – | –
2 | O=c1[nH]cc(F)c(=O)[nH]1 [Compound 5-FU, 5-fluorouracil, reference compound] | – | 81.2% | 75.4% | 85.8% | 67.2% | – | – | – | – | – | – | – | – | – | – | – | – | – | –
3 | CC(=O)Oc1ccccc1C(=O)N1C/C(=C\c2ccccc2)C(=O)/C(=C/c2ccccc2)C1 [Compound 5a, 2-[3,5-Di((E)-benzylidene)-4-oxopiperidine-1-carbonyl]phenyl acetate] | 18.5 | 69.3% | 67.5% | 90.3% | 64.6% | 249 nM | 1550 nM | 0.161 | 1.24 | 1.24 | 4720 ± 420 nM | 2.25 | 0.41 | 4490 ± 410 nM | 2.4 | 10600 ± 1040 nM | 1.32 | 4740 ± 380 nM | 2.25
4 | CC(=O)Oc1ccccc1C(=O)N1C/C(=C\c2ccc(F)cc2)C(=O)/C(=C/c2ccc(F)cc2)C1 [Compound 5b, 2-[3,5-Bis((E)-4-fluorobenzylidene)-4-oxopiperidine-1-carbonyl]phenyl acetate] | 22.7 | 72.8% | 70.9% | 83.7% | 57.0% | 146 nM | 442 nM | 0.330 | 1.1 | 1.11 | 5100 ± 510 nM | 1.63 | 0.69 | 2120 ± 190 nM | 3.9 | 8300 ± 710 nM | 1.6 | 5760 ± 470 nM | 1.44
5 | CC(=O)Oc1ccccc1C(=O)N1C/C(=C\c2ccc(Br)cc2)C(=O)/C(=C/c2ccc(Br)cc2)C1 [Compound 5d, 2-[3,5-Bis((E)-4-bromobenzylidene)-4-oxopiperidine-1-carbonyl]phenyl acetate] | 54.7 | 65.9% | 60.7% | 64.0% | 48.7% | 134 nM | 1110 nM | 0.121 | 1.377 | 1.5 | 3600 ± 290 nM | 2.69 | 1.52 | 986 ± 80 nM | 9.8 | 9680 ± 570 nM | 1.91 | 4580 ± 390 nM | 2.11
6 | CC(=O)Oc1ccccc1C(=O)N1C/C(=C\c2ccc(C)cc2)C(=O)/C(=C/c2ccc(C)cc2)C1 [Compound 5e, 2-[3,5-Bis((E)-4-methylbenzylidene)-4-oxopiperidine-1-carbonyl]phenyl acetate] | 37.4 | 58.8% | 42.1% | 59.6% | 40.9% | 249 nM | 1560 nM | 0.160 | 1.664 | 2.209 | 2560 ± 180 nM | 3.87 | 1.707 | 639 ± 70 nM | 15.5 | 9890 ± 750 nM | 2.202 | 6000 ± 500 nM | 1.65
7 | COc1ccc(/C=C2\CN(C(=O)c3ccccc3OC(C)=O)C/C(=C\c3ccc(OC)cc3)C2=O)cc1 [Compound 5f, 2-[3,5-Bis((E)-4-methoxybenzylidene)-4-oxopiperidine-1-carbonyl]phenyl acetate] | 1.2 | 62.5% | 64.1% | 76.3% | 58.1% | 147 nM | 315 nM | 0.467 | 1.516 | 1.37 | 6080 ± 490 nM | 1.63 | 1 | 6040 ± 620 nM | 1.6 | 9890 ± 660 nM | 1.56 | 5380 ± 510 nM | 1.84
8 | COc1ccc(/C=C2\CN(C(=O)c3ccccc3OC(C)=O)C/C(=C\c3ccc(OC)c(OC)c3)C2=O)cc1OC [Compound 5g, 2-[3,5-Bis((E)-3,4-dimethoxybenzylidene)-4-oxopiperidine-1-carbonyl]phenyl acetate] | 57.5 | 61.5% | 37.3% | 61.2% | 37.6% | 262 nM | 2180 nM | 0.120 | 1.554 | 2.393 | 2390 ± 210 nM | 4.32 | 1.638 | 973 ± 70 nM | 10.6 | 10300 ± 1100 nM | 2.324 | 4970 ± 420 nM | 2.08
9 | COc1cc(/C=C2\CN(C(=O)c3ccccc3OC(C)=O)C/C(=C\c3cc(OC)c(OC)c(OC)c3)C2=O)cc(OC)c1OC [Compound 5h, 2-[4-Oxo-3,5-bis((E)-3,4,5-trimethoxybenzylidene)piperidine-1-carbonyl]phenyl acetate] | 35.0 | 57.9% | 37.2% | 58.9% | 45.4% | 147 nM | 438 nM | 0.336 | 1.698 | 2.398 | 1330 ± 90 nM | 6.47 | 1.737 | 472 ± 20 nM | 18.3 | 8620 ± 720 nM | 2.032 | 3990 ± 360 nM | 2.16
10 | CCN(CCO)CCCC(C)Nc1ccnc2cc(Cl)ccc12 (stereo not shown) [Hydroxychloroquine, reference compound] | 9.7 | – | – | – | – | – | – | – | – | – | – | – | – | – | – | – | – | – | –
